Results as given in PMC12323131, “CSRP2 promotes the glioblastoma mesenchymal phenotype via p130Cas-mediated NF-κB and MAPK pathways” (Journal of Experimental & Clinical Cancer Research : CR, 2025).

Biological target: T1, CSRP2 recombinant protein (Homo sapiens, UniProt Q16527)
T1 construct: labelled with RED-NHS dye
T1 sequence (Q16527 1-193): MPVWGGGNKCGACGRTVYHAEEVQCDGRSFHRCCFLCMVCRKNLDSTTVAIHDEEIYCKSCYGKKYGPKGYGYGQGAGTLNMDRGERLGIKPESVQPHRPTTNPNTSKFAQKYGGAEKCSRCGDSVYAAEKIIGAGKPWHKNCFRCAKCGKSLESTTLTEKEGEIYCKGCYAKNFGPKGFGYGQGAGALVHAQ
Experiment: microscale thermophoresis
Format: binding

O=C1c2c(O)ccc(O)c2C(=O)c2c(NCCNCCO)ccc(NCCNCCO)c21 [Mitoxantrone]
Kd: 370 nM
